Experimental data published in patent publication US9512128B2 (BAYER CROPSCIENCE AG, priority 2012, dated 2016).
Like-named read-outs stand apart in the source and are kept apart here.

Legend:
[1] = log P by HPLC on reversed-phase columns (C 18), EEC directive 79/831 Annex V.A8; format: physicochemical; conditions: for logP[a]: method [a]; for logP[b]: method [b]; for chromatographic logP: reversed-phase C18 HPLC column
Outline: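 Measured by reversed-phase C18 HPLC (LC-MS) with a linear 10→95% acetonitrile gradient. Acidic: pH 2.7, 0.1% formic acid. Neutral: pH 7.8, 0.001 M ammonium bicarbonate.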

[2] = system: southern root-knot nematode (Meloidogyne incognita); assay: Meloidogyne incognita test (MELGIN); format: in vivo; conditions: application rate 20 ppm, after 14 days, lettuce
Description: 5. Meloidogyne incognita Test (MELGIN) • Solvent: 125.0 parts by weight of acetone To prepare a suitable active compound preparation, 1 part by weight of active compound is mixed with the stated amount of solvent and the concentrate is diluted with water to the desired concentration. Vessels are filled with sand, active compound solution, an egg/larvae suspension of the southern root-knot nematode (Meloidogyne incognita) and lettuce seeds. The lettuce seeds germinate and the plants develop. On the roots, galls are formed. After 14 days, the nematicidal effect in % is determined by the formation of galls. 100% means that no galls have been found; 0% means that the number of galls on the treated plants corresponds to the untreated control.

[3] = system: greenhouse red spider mite (Tetranychus urticae); assay: Tetranychus urticae spray test, OP-resistant (TETRUR); format: in vivo; conditions: application rate 500 g/ha, after 6 days, bean leaf discs
Description: 4. Tetranychus urticae Spray Test, OP-Resistant (TETRUR)
• Solvents: 78.0 parts by weight of acetone • 1.5 part by weight of dimethylformamide • Emulsifier: 0.5 part by weight of alkylaryl polyglycol ether
To produce a suitable preparation of active compound, 1 part by weight of active compound is mixed with the stated amounts of solvents and emulsifier, and the concentrate is diluted with emulsifier-containing water to the desired concentration.
Discs of bean leaves (Phaseolus vulgaris) which are infested by all stages of the greenhouse red spider mite (Tetranychus urticae) are sprayed with an active compound preparation of the desired concentration.
After 6 days, the efficacy in % is determined. 100% means that all of the spider mites have been killed; 0% means that none of the spider mites have been killed.

Row | logP[a] [1] | logP[b] [1] | SMILES | nematicidal effect in % (formation of galls) [2] [%] | efficacy in % (spider mites killed) [3] [%] | further results
1 | 2.34 | 2.33 | Cc1cc(F)c(-n2cnc3c(cnn3CC(F)(F)F)c2=O)cc1[S+]([O-])CC(F)(F)F (racemic) [Compound 18] | 90 | – | –
2 | 2.39 | 2.34 | Cc1nn(C)c2ncn(-c3ccc(C(F)(F)F)c([S+]([O-])CC(F)(F)F)c3)c(=O)c12 (racemic) [Compound 32] | 90 | – | –
3 | 1.78 | 1.75 | Cc1c2c(=O)n(-c3ccc(Cl)c([S+]([O-])CC(F)(F)F)c3)cnc2nn1C (racemic) [Compound 49] | 90 | – | –
4 | 4.20 | 4.10 | Cc1cc(F)c(-n2c(C(F)(F)F)nc3c(cnn3CC(F)(F)F)c2=O)cc1SCC(F)(F)F [Compound 19] | 90 | – | –
5 | – | – | Cc1cc(F)c(-n2c(C(F)(F)F)nc3nn(C)cc3c2=O)cc1[S+]([O-])CC(F)(F)F (centres unmarked) [Compound 43] | 90 | – | –
6 | 2.70 | 2.63 | Cc1c2c(=O)n(-c3ccc(C(F)(F)F)c(SCC(F)(F)F)c3)cnc2nn1C [Compound 45] | 80 | – | –
7 | 2.83 | 2.77 | O=c1c2ncsc2ncn1-c1cc(SCC(F)(F)F)c(Cl)cc1Cl [Compound 63] | 90 | – | –
8 | 2.72 | 2.70 | Cc1cc(F)c(-n2c(C)nc3scnc3c2=O)cc1SCC(F)(F)F [Compound 64] | 90 | – | –
9 | 2.20 | 2.17 | O=c1c2ccsc2ncn1-c1ccc(Cl)c([S+]([O-])CC(F)(F)F)c1 (centres unmarked) [Compound 87] | 100 | – | –
10 | 2.15 | 2.11 | Cc1cc(C)c([S+]([O-])CC(F)(F)F)cc1-n1cnc2sccc2c1=O (centres unmarked) [Compound 97] | 90 | – | –
11 | 3.01 | 2.90 | Cc1cc(F)c(-n2cnc3ccsc3c2=O)cc1SCC(F)(F)F [Compound 108] | 90 | – | –
12 | 2.43 | 2.38 | Cc1cc(F)c(-n2cnc3c(Cl)csc3c2=O)cc1[S+]([O-])CC(F)(F)F (centres unmarked) [Compound 114] | 90 | – | –
13 | – | – | Cc1cc(F)c(-n2nnc3c(cnn3C)c2=O)cc1SCC(F)(F)F [Compound 119, 3-{2-Fluoro-4-methyl-5-[(2,2,2-trifluoroethyl)sulphanyl]phenyl}-7-methyl-3,7-dihydro-4H-pyrazolo[3,4-d][1,2,3]triazin-4-one] | – | 90 | chromatographic logP ([1]; pH 2.7, acidic range, pH 2.7, 0.1% aqueous formic acid / acetonitrile, read-out: log P[a]): 3.16; chromatographic logP ([1]; pH 2.7, method [a], read-out: logP[a]): 3.16; chromatographic logP ([1]; pH 7.8, method [b], read-out: logP[b]): 3.13; chromatographic logP ([1]; pH 7.8, neutral range, pH 7.8, 0.001 molar aqueous ammonium bicarbonate / acetonitrile, read-out: log P[b]): 3.13
14 | – | – | Cc1ccc(-n2cnc3cnn(C)c3c2=O)cc1[S+]([O-])CC(F)(F)F (centres unmarked) [Compound 142] | 100 | 100 | –
15 | – | – | CCc1nc2cnn(C)c2c(=O)n1-c1cc(SCC(F)(F)F)c(C)cc1F [Compound 146] | 90 | – | –
16 | – | – | CCc1nc2cnn(C)c2c(=O)n1-c1cc([S+]([O-])CC(F)(F)F)c(C)cc1F (centres unmarked) [Compound 147] | 100 | 100 | –
17 | – | – | Cn1ncc2ncn(-c3cc(SCC(F)(F)F)c(Cl)cc3F)c(=O)c21 [Compound 148] | 100 | 100 | –
18 | – | – | Cc1nc2cnn(C)c2c(=O)n1-c1cc(SCC(F)(F)F)c(Cl)cc1F [Compound 149] | 100 | 100 | –
19 | – | – | Cc1cc(Cl)c(-n2nnc3cnn(C)c3c2=O)cc1[S+]([O-])CC(F)(F)F (centres unmarked) [Compound 153] | 100 | 90 | –
20 | – | – | Cc1nc2cnn(C)c2c(=O)n1-c1cc([S+]([O-])CC(F)(F)F)c(Cl)cc1F (centres unmarked) [Compound 155] | 100 | 90 | –
21 | – | – | Cc1cc(Cl)c(-n2c(C)nc3cnn(C)c3c2=O)cc1[S+]([O-])CC(F)(F)F (centres unmarked) [Compound 157] | 90 | 100 | –
22 | – | – | CCn1ncc2ncn(-c3cc(SCC(F)(F)F)c(C)cc3F)c(=O)c21 [Compound 159] | 100 | 100 | –
23 | – | – | CCn1ncc2nc(C)n(-c3cc(SCC(F)(F)F)c(C)cc3F)c(=O)c21 [Compound 160] | 100 | 100 | –
24 | – | – | Cc1cc(F)c(-n2c(C)nc3cnn(C(C)C)c3c2=O)cc1SCC(F)(F)F [Compound 162] | 90 | 100 | –
25 | – | – | CCn1ncc2ncn(-c3cc([S+]([O-])CC(F)(F)F)c(C)cc3F)c(=O)c21 (centres unmarked) [Compound 163] | 90 | 100 | –
26 | – | – | CCn1ncc2nc(C)n(-c3cc([S+]([O-])CC(F)(F)F)c(C)cc3F)c(=O)c21 (centres unmarked) [Compound 164] | 100 | 100 | –
27 | – | – | Cc1cc(F)c(-n2c(C)nc3cnn(CC4CC4)c3c2=O)cc1SCC(F)(F)F [Compound 168] | 90 | – | –

Row | SMILES | logP[a] [1] | logP[b] [1] | nematicidal effect in % (formation of galls) [2] [%] | efficacy in % (spider mites killed) [3] [%] | further results
28 | Cc1cc(F)c(-n2cnc3c(ncn3C)c2=O)cc1SCC(F)(F)F [Compound 52] | 2.17 | 2.11 | – | 90 | –
29 | Cc1cc(C)c([S+]([O-])CC(F)(F)F)cc1-n1cnc2scnc2c1=O (centres unmarked) [Compound 66] | 1.6 | 1.62 | – | 90 | –
30 | Cc1cc(F)c(-n2c(C)nc3scnc3c2=O)cc1[S+]([O-])CC(F)(F)F (centres unmarked) [Compound 68] | 1.72 | 1.70 | – | 90 | –
31 | Cc1nc2c(=O)n(-c3cc(SCC(F)(F)F)c(C)cc3F)cnc2s1 [Compound 70] | 2.80 | 2.74 | 90 | – | –
32 | Cc1cc(C)c(-n2cnc3ncsc3c2=O)cc1SCC(F)(F)F [Compound 76] | 2.62 | 2.59 | – | 90 | –
33 | Cc1cc(C)c(-n2cnc3sccc3c2=O)cc1SCC(F)(F)F [Compound 91] | 3.34 | 3.25 | – | 100 | –
34 | Cc1cc(F)c(-n2cnc3sccc3c2=O)cc1SCC(F)(F)F [Compound 92] | 3.22 | 3.14 | – | 100 | –
35 | Cc1cc(F)c(-n2cnc3ccsc3c2=O)cc1[S+]([O-])CC(F)(F)F (centres unmarked) [Compound 113] | 2.35 | 2.31 | 90 | – | –
36 | Cc1ccc(-n2cnc3nsc(C(C)(C)C)c3c2=O)cc1SCC(F)(F)F [Compound 116] | 4.05 | 3.96 | – | 90 | –
37 | CC(C)(C)c1snc2ncn(-c3ccc(Cl)c(SCC(F)(F)F)c3)c(=O)c12 [Compound 117] | 4.06 | 3.97 | – | 90 | –
